pIC50: −log10 of the molar value. Ends that are not written are not given here.
Legend:
[1] = tested on: IAPs; conditions: cited from earlier work
Text: (§1) First, the cathepsin B-cleavable SMAC-P, SMAC-P-FRRG ([…]), was conjugated to a DOX through one-step EDC/NHS reaction, resulting in SMAC-P-FRRG-DOX (Fig. 1a and Additional file 1: Figure S1).

[2] = tested on: CT26 cells; test: Cellular uptake and nuclear localization of DOX fluorescence (confocal); conditions: both naive or Z-FA-FMK-treated CT26 cells; 2 µM, 48 h
Procedure: The cells were then washed with DPBS, fixed with 4% paraformaldehyde for 10 min, and stained with 4ʹ,6-diamidino-2-phenylindole (DAPI) for 5 min. […] The cellular uptake of each drug in different cell lines were quantified using flow cytometer (CytoFLEX, BECKMAN COULTER, USA).

[3] = tested on: CT26 cells co-cultured with bone marrow-derived macrophages (BMDMs); test: Co-culture assay: phagocytosis of treated CT26 cells by BMDMs; conditions: CT26 treated 2 µM (DOX contents) 48 h, pHrodo labeled; co-cultured 2 h with BMDMs; confocal imaging
Procedure: For these analyses, bone marrow cells were collected from 5-week-old male BALB/C mice and cultured with differentiation media containing M-CSF (20 ng/mL) for 7 days, followed by labeling with CellTracker Green. […] Then, both cells were co-cultured at 37 C for 2 h, and the phagocytosis of cancer cells was observed using a CLSM.

[4] = tested on: IAPs in CT26 cells; test: Intracellular IAPs expression by western blot; assay type: cell-based, mouse; conditions: 48 h
[5] = Drug release profile from dialysis membranes; assay type: physicochemical; conditions: very fast release
[6] = tested on: cancer, normal and immune cells (CT26, 4T1, H9C2, HDF, M0 and M1 macrophages, DCs, T cells); test: Cytotoxicity study (CCK-8), all cell types; conditions: read-out: IC50 values in all the cell types (span); CCK-8, 48 h, concentrations based on DOX contents
Procedure: Briefly, 5 × 10^3 cells were seeded in 96-well cell culture plates and cultured at 37 C for 24 h. […] Finally, 20 μl Cell Counting Kit-8 (CCK-8) solution was added and then further incubated for 20 min. The cell viability was measured using a UV/Vis microplate reader.

[7] = tested on: CT26 tumor tissues; test: Antitumor immune response in tumor tissues (flow cytometry); assay type: in vivo, mice; conditions: day 13 after treatment, 3 mg/kg DOX dose once every three days
Procedure: (§2) Antitumor efficacy was assessed by measuring tumor volumes that are calculated as the largest diameter × the smallest diameter^2 × 0.53. To analyze the increase of tumor-infiltrating lymphocytes by antitumor immune response, tumor tissues were collected from mice on day 13 after treatment, and single cells were isolated from tumor tissues using a tumor dissociation kit. Following single cell counting, the cells were incubated with FcBlock for 10 min to avoid non-specific antibody binding. Then, multi-parameter staining was performed at 4 °C for 50 min to identify the following populations within the tumor tissues: (i) CRT-positive cancer cells (CD45^−CRT^+), (ii) mature DCs (CD11c^+CD40^+CD86^+), (iii) cytotoxic T cells (CD45^+CD3^+CD8^+) and (iv) regulatory T lymphocytes (Tregs; CD45^+CD3^+CD4^+CD25^+).

[8] = tested on: CT26 colon tumor-bearing mice
Procedure: as §2

[9] = tested on: CT26 colon tumor-bearing mice; test: In vivo antitumor efficacy
Procedure: as §2

[10] = Particle stability (particle size over time) in saline, mouse plasma or serum; assay type: physicochemical
Procedure: The inset pictures indicate representative images of Aposomes in mouse serum conditions. g Release profiles of free DOX, DOXIL and Aposomes. […] As a control, SMAC-P-FRRG-DOX in MES buffer in the absence of cathepsin B was analyzed using an HPLC system.

[11] = tested on: cathepsin E; conditions: cited from earlier work
Text: as §1

[12] = tested on: MMP-9; conditions: cited from earlier work
Text: as §1

[13] = tested on: caspase-3; conditions: cited from earlier work
Text: as §1

[14] = tested on: cathepsin L; conditions: cited from earlier work
Text: as §1

[15] = tested on: cathepsin D; conditions: cited from earlier work
Text: as §1

[16] = Size distribution and zeta potential by zeta-sizer (DLS); assay type: physicochemical; conditions: Zetasizer, 1 mg/ml; saline or D.W (Figure S3)

AVPIAQFR [peptide released from SMAC-P-FRRG-DOX by cathepsin B]
IAPs antagonism activity of cathepsin B cleavage product [1]: comparable IAPs antagonism activity to AVPIAQ

COc1cccc2c1C(=O)c1c(O)c3c(c(O)c1C2=O)C[C@@](O)(C(=O)CO)C[C@@H]3O[C@H]1C[C@H](N)[C@H](O)[C@H](C)O1.Cl [free DOX, Doxorubicin hydrochloride]
free DOX fluorescence detected in the nuclei [2]: more than 90%
phagocytosis of CT26 cells by BMDMs [3]: 2.1 ± 0.21%
intracellular IAPs expression levels [4]: significantly upregulated
time of release from dialysis membranes [5]: ≤ 6 h
pIC50 [6]: 6.42 to 8.52
percentage of CRT-positive tumor cells (CD45−CRT+) within the tumor tissues [7]: 57.67 ± 0.91%
mice died within 13 days ([8]; 3 mg/kg DOX dose i.v. once every three days): 4 out of 5
body weight loss and tissue damage in major organs ([8]; 3 mg/kg DOX dose once every three days, H and E of major organs): significant body weight loss along with extensive tissue damages
median survival / survival of mice ([9]; 3 mg/kg DOX dose once every three days): 14 days
tumor volume on day 14 ([9]; i.v. 3 mg/kg DOX dose once every three days, n = 5, mean ± SD): 556.2 ± 149.82 mm^3

AVPIAQFRRG [SMAC-P-FRRG-DOX, prodrug of SMAC mimetic peptide (AVPIAQ), cathepsin B-cleavable peptide (FRRG) and doxorubicin]
particle stability in mouse plasma ([10]; mouse plasma, 1 mg/ml, up to 5 days, particle size): remarkable aggregation after 2 days
particle stability in mouse serum ([10]; mouse serum, as worded in Conclusions): significant aggregation from 48 h
cleavage by cathepsin E [11]: not cleaved
cleavage by MMP-9 [12]: not cleaved
cleavage by caspase-3 [13]: not cleaved
cleavage by cathepsin L [14]: not cleaved
cleavage by cathepsin D [15]: not cleaved
zeta potential [16]: 14.9 ± 0.814 mV

AVPIAQ
IAP antagonism compared to AVPIAQK, AVPIA and AVPI [1]: potent activity for IAP antagonism compared to other sequences

Source: article PMC10938764 (Journal of Nanobiotechnology, 2024)
